# Laboratory results reported in US9441237B2, “Auxin receptors” (THE GOVERNORS OF THE UNIVERSITY OF ALBERTA, priority 2010, dated 2016).
# Key:
# [1] = test system: PsAFB2 transcript abundance in pericarp; experiment: Pea split-pericarp assay, hormone applied to deseeded pericarps, PsAFB2 transcript abundance by qRT-PCR; assay type: in vivo, Pisum sativum; details: deseeded 2 DAA pericarps, 50 μM hormone applied 12 h after deseeding, 2, 8 and 12 h after application
# Description: (§1) To examine the hormonal regulation of pericarp AFB mRNA levels, the pea split-pericarp assay was used (Ozga et al., 1992). Fruit at 2 DAA were split along the dorsal suture. Seeds were removed and pericarps were left for 12 hours prior to hormone application to reduce residual seed effects. […] For split-pod, no seed controls (SPNS), 30 μL of 0.1% aqueous Tween 80 was applied. For split-pod controls (SP), seeds were not removed after the dorsal suture was opened, but 30 μL of 0.1% aqueous Tween 80 was applied 12 hours after pericarp splitting. As a further control for the split-pericarp procedure, intact pods were also harvested at the appropriate times. All fruit subjected to split-pericarp treatments were covered with plastic to maintain humidity, and all manipulations were carried out while pericarps remained on the plant. Intact controls were harvested at the 0 hour and 12 hour treatment timing, while all split-pericarp treatments were harvested at 12, 14, 20, and 24 hours after pericarp splitting (0, 2, 8, and 12 hours after hormone treatment).
# All transcript quantification was performed on a StepOnePlus sequence detector (Applied Biosystems). Reverse transcription and quantification was performed using TaqMan One-Step RT-PCR Master Mix (Applied Biosystems; final concentration 1×) and 200 ng of DNAse treated total RNA (final concentration 8 ng μL^−1) in duplicate in a final volume of 25 μL per well. The final concentration of forward and reverse primers was 300 nM each, and the final concentration of probe was 100 nM. Reverse transcription was carried out for 30 minutes at 48° C. […] Quantification was carried out for 40 cycles of the following program: denaturation at 95° C. for 15 seconds, primer annealing and extension at 60° C. for 1 minute. […]
# (§2) Relative transcript levels were calculated using the ΔCt method (Livak and Schmittgen, 2001) using the following formula, where X is an arbitrary value equal to or greater than the highest assayed Ct value and E is the reaction efficiency for the amplicon in question: Transcript abundance=(1+E)^X−Ct) (1)
# [2] = test system: PsAFB6 transcript abundance in pericarp; experiment: Pea split-pericarp assay, hormone applied to deseeded pericarps, PsAFB6 transcript abundance by qRT-PCR; assay type: in vivo, Pisum sativum; details: deseeded 2 DAA pericarps, 50 μM hormone
# Description: as §1
# All transcript quantification was performed on a StepOnePlus sequence detector (Applied Biosystems). Reverse transcription and quantification was performed using TaqMan One-Step RT-PCR Master Mix (Applied Biosystems; final concentration 1×) and 200 ng of DNAse treated total RNA (final concentration 8 ng μL^−1) in duplicate in a final volume of 25 μL per well. The final concentration of forward and reverse primers was 300 nM each, and the final concentration of probe was 100 nM. Reverse transcription was carried out for 30 minutes at 48° C. DNA polymerase antibody was denatured at 95° C. for 10 minutes. Quantification was carried out for 40 cycles of the following program: denaturation at 95° C. for 15 seconds, primer annealing and extension at 60° C. for 1 minute. Probes were labelled at the 5′ end with FAM (6-carboxyfluorescein) and at the 3′ end with the MGB quencher (Applied Biosystems).
# as §2
# deseeded pea pericarps [3] = experiment: Deseeded pea pericarp growth / fruit abortion after hormone application (split-pericarp); assay type: in vivo, Pisum sativum; details: hormone applied to deseeded ovaries
# deseeded pea pericarps [4] = details: hormone applied to deseeded pericarps, split-pericarp assay; literature (Reinecke et al. 1995, 1999; Ozga and Reinecke 1999; Johnstone et al. 2005); cited from earlier work
# [5] = throughout the time course (2 to 12 h after application)
Compound,effect on steady-state PsAFB2 transcript abundance [1],effect on pericarp PsAFB6 mRNA abundance ([2]; 2 hours after application),"effect on pericarp PsAFB6 mRNA abundance [2, 5]",abortion of deseeded fruits (deseeded pea pericarps [3]),deseeded pericarp growth (deseeded pea pericarps [4]),effect on pericarp PsAFB6 mRNA abundance ([2]; 8 hours to 12 hours after application)
"O=C(O)Cc1c[nH]c2cccc(Cl)c12 [4-Cl-IAA, 4-chloroindole-3-acetic acid]",did not significantly affect,initially reduced,reduced PsAFB6 mRNA abundance to levels similar to those found in SP controls,prevention of fruit abortion,stimulated pericarp growth,
"O=C(O)Cc1c[nH]c2ccccc12 [IAA, indole-3-acetic acid]",did not significantly affect,,,nor does it prevent the abortion of deseeded fruits,further decreases growth,increased to that observed in the SPNS pericarps
Cc1cccc2[nH]cc(CC(=O)O)c12 [4-Me-IAA],,,,,"capable of stimulating the expansion of deseeded pericarps, but not to the same extent as 4-Cl-IAA",
C=C1C[C@]23C[C@@]1(O)CC[C@H]2[C@@]12CC[C@H](O)[C@@](C)(C(=O)O1)[C@H]2[C@@H]3C(=O)O [GA1],,,,,stimulate deseeded pericarp growth,
C=C1C[C@]23C[C@@]1(O)CC[C@H]2[C@@]12C=C[C@H](O)[C@@](C)(C(=O)O1)[C@H]2[C@@H]3C(=O)O [GA3],did not significantly affect,,no effect,,stimulate deseeded pericarp growth,
